Measured values reported in patent US6893654B2, “Two-stage transmucosal medicine delivery system for symptom relief” (priority 1998, dated 2005).

Conditions: solution at pH 8.0

## CN1CCCC1c1cccnc1 (stereo not shown) [nicotine]
  portion of nicotine unionized and free to be absorbed: fifty
